Measured values published in US12692261B2, “Substituted heterocyclic compounds and therapeutic uses thereof” (Bayer Aktiengesellschaft, priority 2020, dated 2026).

Assays:
[1] = target: T1, full-length human CSNK1A1 (Homo sapiens, UniProt P48729); assay: CSNK1A1 Assay 2 (ADP-Glo, 1 μM ATP, substrate biotin-Ahx-KRRRAL-pS-VASLPGL); assay type: biochemical; details: Table 3, read-out: CSNK1A1 Assay 2 IC50 [mol/l] (median)
T1 construct: N-terminal Glutathion-S-Transferase (GST) and full-length human CSNK1A1; purchased Life Technologies PV4174; host or cells: baculovirus infected insect cells
Outline: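 GST-tagged full-length human CSNK1A1 from baculovirus-infected insect cells (about 0.0375 ng/μL), preincubated 15 min at 22 °C with compound in HEPES pH 7.5 buffer, with 1 μM ATP and biotin-Ahx-KRRRAL-pS-VASLPGL substrate. ADP formed read by ADP-Glo luminescence.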

full-length human CSNK1D = target: T2, full-length human CSNK1D (Homo sapiens, UniProt P48730); assay: CSNK1D Assay (ADP-Glo, 1 μM ATP); assay type: biochemical; details: Table 3, read-out: CSNK1D IC50 [mol/l] (median)
T2 construct: N-terminal Glutathion-S-Transferase (GST) and full-length human CSNK1D; purchased Life Technologies PV3665; host or cells: baculovirus infected insect cells
Protocol: CSNK1D-inhibitory activity of compounds of the present invention in presence of 1 μM adenosine-tri-phosphate (ATP) was quantified employing the CSNK1 D assay as described in the following paragraphs. In essence, the enzyme activity is measured by quantification of the adenosine-di-phosphate (ADP), which is generated as a co-product of the enzyme reaction, via the “ADP-Glo™ Kinase Assay” kit from the company Promega. This detection system works as follows: In a first step the ATP not consumed in the kinase reaction is quantitatively converted to cAMP employing an adenylate cyclase (“ADP-Glo-reagent”), then the adenylate cyclase is stopped and the ADP generated in the kinase reaction converted to ATP which generates in a luciferase-based reaction a glow-luminescence signal (“Kinase Detection Reagent”).
Recombinant fusion protein of N-terminal Glutathion-S-Transferase (GST) and full-length human CSNK1D, expressed by baculovirus infected insect cells and purified via Glutathion affinity chromatography, was purchased from Life Technologies (product no. PV3665) and used as enzyme. As substrate for the kinase reaction the biotinylated peptide Btn-Ahx-[…] (C-terminus in amide form) was used which can be purchased e.g. from the company Biosyntan (Berlin-Buch, Germany).
For the assay 50 nl of a 100 fold concentrated solution of the test compound in DMSO was pipetted into a white 1536-well microtiter plate (Greiner Bio-One, Frickenhausen, Germany), 2 μL of a solution of CSNK1D in aqueous assay buffer [50 mM HEPES pH 7.5, 10% (v/v) glycerol, 10 mM MgCl2, 50 mM NaCl, 1 mM dithiothreitol, 0.01% (w/v) bovine serum albumin, 0.01% (v/v) Triton X-100] were added and the mixture was incubated for 15 min at 22° C. to allow pre-binding of the test compounds to the enzyme before the start of the kinase reaction. […] The concentration of CSNK1D was adjusted depending of the activity of the enzyme lot and was chosen appropriate to have the assay in the linear range, a typical concentration is about 0.5 ng/μL. The reaction was stopped by the addition of 2.5 μL of “ADP-Glo-reagent” (1:1.5 fold diluted with water) and the resulting mixture was incubated at 22° C. for 1 h to convert the ATP not consumed in the kinase reaction completely […]. Subsequently 2.5 μL of the “kinase detection reagent” (1.2 fold more concentrated than recommended by the producer) were added, the resulting mixture was incubated at 22° C. for 1 h and then the luminescence measured with a suitable measurement instrument (e.g. Viewlux™ from Perkin-Elmer). The amount of emitted light was taken as a measure for the amount of ADP generated and thereby for the activity of the CSNK1D.

T2 sequence (P48730 whole entry): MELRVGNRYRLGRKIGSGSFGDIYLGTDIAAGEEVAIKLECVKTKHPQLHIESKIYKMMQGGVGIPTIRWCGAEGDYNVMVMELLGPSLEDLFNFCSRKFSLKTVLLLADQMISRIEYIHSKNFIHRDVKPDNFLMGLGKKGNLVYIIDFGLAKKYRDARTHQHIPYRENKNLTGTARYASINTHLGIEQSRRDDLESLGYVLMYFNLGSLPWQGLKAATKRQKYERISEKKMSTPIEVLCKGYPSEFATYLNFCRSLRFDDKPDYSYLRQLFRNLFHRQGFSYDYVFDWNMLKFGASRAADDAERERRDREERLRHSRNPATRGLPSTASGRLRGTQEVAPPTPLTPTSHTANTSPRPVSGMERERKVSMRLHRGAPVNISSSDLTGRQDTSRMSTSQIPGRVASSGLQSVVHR
T1 sequence (P48729 whole entry): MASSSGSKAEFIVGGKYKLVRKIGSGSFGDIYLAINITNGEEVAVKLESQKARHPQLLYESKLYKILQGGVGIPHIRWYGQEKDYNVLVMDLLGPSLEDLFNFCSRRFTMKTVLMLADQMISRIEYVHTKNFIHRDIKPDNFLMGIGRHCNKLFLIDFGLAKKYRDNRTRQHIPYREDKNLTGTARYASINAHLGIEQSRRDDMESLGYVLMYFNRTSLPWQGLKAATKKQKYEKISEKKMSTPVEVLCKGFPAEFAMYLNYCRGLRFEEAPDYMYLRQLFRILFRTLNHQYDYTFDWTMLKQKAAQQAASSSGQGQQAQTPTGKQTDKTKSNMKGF

SMILES	IC50 [1] [nM]	IC50 (full-length human CSNK1D) [nM]
O=C(Nc1cc(-c2[nH]c3c(Cl)ccnc3c2-c2ccccn2)ccn1)C(CC(F)F)c1ccc(F)cc1 (racemic) [Example 49, (2RS)—N-{4-[7-chloro-3-(pyridin-2-yl)-1H-pyrrolo[3,2-b]pyridin-2-yl]pyridin-2-yl}-4,4-difluoro-2-(4-fluorophenyl)butanamide]	3.64	7.69
O=C(Nc1cc(-c2[nH]c3ccc(F)nc3c2-c2cc(F)ccn2)ccn1)C(CC(F)F)c1ccc(F)cc1 (racemic) [Example 95, (2RS)-4,4-difluoro-N-{4-[5-fluoro-3-(4-fluoropyridin-2-yl)-1H-pyrrolo[3,2-b]pyridin-2-yl]pyridin-2-yl}-2-(4-fluorophenyl)butanamide]	5.62	10.5
CC(C)(O)c1cc(F)nc2c(-c3ccccn3)c(-c3ccnc(NC(=O)C(CC(F)F)c4ccc(F)cc4)c3)[nH]c12 (racemic) [Example 98, (2RS)-4,4-difluoro-N-{4-[5-fluoro-7-(2-hydroxypropan-2-yl)-3-(pyridin-2-yl)-1H-pyrrolo[3,2-b]pyridin-2-yl]pyridin-2-yl}-2-(4-fluorophenyl)butanamide]	7.36	6.84
O=C(Nc1cc(-c2[nH]c3cccnc3c2-c2ncccn2)ccn1)C(CC(F)F)c1ccc(F)cc1 (racemic) [Example 112, (2RS)-4,4-difluoro-2-(4-fluorophenyl)-N-[4-(3-pyrimidin-2-yl-1H-pyrrolo[3,2-b]pyridin-2-yl)-2-pyridyl]butanamide]	10.1	16.9
O=C(Nc1cc(-c2[nH]c3c(C4CCCO4)cc(F)nc3c2-c2ccccn2)ccn1)C(CC(F)F)c1ccc(F)cc1 (racemic) [Example 114, (2RS)-4,4-difluoro-2-(4-fluorophenyl)-N-(4-{5-fluoro-3-(pyridin-2-yl)-7-[(2RS)-tetrahydrofuran-2-yl]-1H-pyrrolo[3,2-b]pyridin-2-yl}pyridin-2-yl)butanamide]	6.74	8.03
O=C(Nc1cc(-c2[nH]c3nccnc3c2-c2ccccn2)ccn1)C(CC(F)(F)F)c1ccc(F)cc1 (racemic) [Example 119, (2RS)-4,4,4-trifluoro-2-(4-fluorophenyl)-N-{4-[7-(pyridin-2-yl)-5H-pyrrolo[2,3-b]pyrazin-6-yl]pyridin-2-yl}butanamide]	2.71	7.07
O=C(Nc1cc(-c2[nH]c3c(OCC(F)(F)F)ncnc3c2-c2ccccn2)ccn1)C(CC(F)F)c1ccc(F)cc1 (racemic) [Example 122, (2RS)-4,4-difluoro-2-(4-fluorophenyl)-N-{4-[7-(pyridin-2-yl)-4-(2,2,2-trifluoroethoxy)-5H-pyrrolo[3,2-d]pyrimidin-6-yl]pyridin-2-yl}butanamide]	7.69	7.04
O=C(Nc1cc(-c2[nH]c3c(OCC(F)(F)F)ncnc3c2-c2ccccn2)ccn1)C(CC(F)(F)F)c1ccc(F)cc1 (racemic) [Example 125, (2RS)-4,4,4-trifluoro-2-(4-fluorophenyl)-N-{4-[7-(pyridin-2-yl)-4-(2,2,2-trifluoroethoxy)-5H-pyrrolo[3,2-d]pyrimidin-6-yl]pyridin-2-yl}butanamide]	14.8	14.2
O=C(Nc1cc(-c2[nH]c3c(OCC4CC4)ncnc3c2-c2ccccn2)ccn1)C(CC(F)F)c1ccc(F)cc1 (racemic) [Example 128, (2RS)—N-{4-[4-(cyclopropylmethoxy)-7-(pyridin-2-yl)-5H-pyrrolo[3,2-d]pyrimidin-6-yl]pyridin-2-yl}-4,4-difluoro-2-(4-fluorophenyl)butanamide]	8.03	8.51
O=C(Nc1cc(-c2[nH]c3ccc(F)nc3c2-c2ccccn2)ccn1)[C@H](CC(F)F)c1ccc(F)cc1 (single isomer, unassigned) [Example 3]	9.21	20.1
Cc1ccc2[nH]c(-c3ccnc(NC(=O)C(CC(F)F)c4ccc(F)cc4)c3)c(-c3ccccn3)c2n1 (single isomer, unassigned) [Example 5, 4,4-difluoro-2-(4-fluorophenyl)-N-{4-[5-methyl-3-(pyridin-2-yl)-1H-pyrrolo[3,2-b]pyridin-2-yl]pyridin-2-yl}butanamide]	4.43	7.13
Cc1ccc2[nH]c(-c3ccnc(NC(=O)C(CC(F)F)c4ccc(F)cc4)c3)c(-c3ccccn3)c2n1 (single isomer, unassigned) [Example 6, 4,4-difluoro-2-(4-fluorophenyl)-N-{4-[5-methyl-3-(pyridin-2-yl)-1H-pyrrolo[3,2-b]pyridin-2-yl]pyridin-2-yl}butanamide]	68.2	89.7
Cc1cnc2c(-c3ccccn3)c(-c3ccnc(NC(=O)C(CC(F)F)c4ccc(F)cc4)c3)[nH]c2c1 (single isomer, unassigned) [Example 8, 4,4-difluoro-2-(4-fluorophenyl)-N-{4-[6-methyl-3-(pyridin-2-yl)-1H-pyrrolo[3,2-b]pyridin-2-yl]pyridin-2-yl}butanamide]	3.01	4.01
Cc1cnc2c(-c3ccccn3)c(-c3ccnc(NC(=O)C(CC(F)F)c4ccc(F)cc4)c3)[nH]c2c1 (single isomer, unassigned) [Example 9, 4,4-difluoro-2-(4-fluorophenyl)-N-{4-[6-methyl-3-(pyridin-2-yl)-1H-pyrrolo[3,2-b]pyridin-2-yl]pyridin-2-yl}butanamide]	15.8	32.8
O=C(Nc1cc(-c2[nH]c3c(OCC(F)F)cc(F)nc3c2-c2ccccn2)ccn1)C(CC(F)F)c1ccc(F)cc1 (single isomer, unassigned) [Example 29, (2R or S)—N-{4-[7-(2,2-difluoroethoxy)-5-fluoro-3-(pyridin-2-yl)-1H-pyrrolo[3,2-b]pyridin-2-yl]pyridin-2-yl}-4,4-difluoro-2-(4-fluorophenyl)butanamide]	3.31	2.32
O=C(Nc1cc(-c2[nH]c3c(OCC(F)F)cc(F)nc3c2-c2ccccn2)ccn1)C(CC(F)F)c1ccc(F)cc1 (single isomer, unassigned) [Example 30, (2R or S)—N-{4-[7-(2,2-difluoroethoxy)-5-fluoro-3-(pyridin-2-yl)-1H-pyrrolo[3,2-b]pyridin-2-yl]pyridin-2-yl}-4,4-difluoro-2-(4-fluorophenyl)butanamide]	8.84	14.7
O=C(Nc1cc(-c2[nH]c3nccnc3c2-c2ccccn2)ccn1)[C@@H](CC(F)F)c1ccc(F)cc1 (single isomer, unassigned) [Example 32]	1.37	4.55
Cc1cc2[nH]c(-c3ccnc(NC(=O)C(CC(F)F)c4ccc(F)cc4)c3)c(-c3ccccn3)c2nc1F (single isomer, unassigned) [Example 34, 4,4-difluoro-N-{4-[5-fluoro-6-methyl-3-(pyridin-2-yl)-1H-pyrrolo[3,2-b]pyridin-2-yl]pyridin-2-yl}-2-(4-fluorophenyl)butanamide]	3.79	6.86
Cc1cc2[nH]c(-c3ccnc(NC(=O)C(CC(F)F)c4ccc(F)cc4)c3)c(-c3ccccn3)c2nc1F (single isomer, unassigned) [Example 35, 4,4-difluoro-N-{4-[5-fluoro-6-methyl-3-(pyridin-2-yl)-1H-pyrrolo[3,2-b]pyridin-2-yl]pyridin-2-yl}-2-(4-fluorophenyl)butanamide]	2.69	3.7
